In patent publication US9512105B2, “1-substituted 4-arylpiperazine as kappa opioid receptor antagonists” (RESEARCH TRIANGLE INSTITUTE, priority 2011, dated 2016):
Structures can show the parent of a compound that is named as a salt. Where two headings read alike, the source gives them in different places.

Experiments:
[1] = molecular target: T1, cloned human μ-opioid receptor (Homo sapiens, UniProt P35372); test: Inhibition of DAMGO-stimulated [35S]GTPγS binding; type: biochemical
T1 construct: expressed in transfected cells
T1 sequence (P35372 whole entry): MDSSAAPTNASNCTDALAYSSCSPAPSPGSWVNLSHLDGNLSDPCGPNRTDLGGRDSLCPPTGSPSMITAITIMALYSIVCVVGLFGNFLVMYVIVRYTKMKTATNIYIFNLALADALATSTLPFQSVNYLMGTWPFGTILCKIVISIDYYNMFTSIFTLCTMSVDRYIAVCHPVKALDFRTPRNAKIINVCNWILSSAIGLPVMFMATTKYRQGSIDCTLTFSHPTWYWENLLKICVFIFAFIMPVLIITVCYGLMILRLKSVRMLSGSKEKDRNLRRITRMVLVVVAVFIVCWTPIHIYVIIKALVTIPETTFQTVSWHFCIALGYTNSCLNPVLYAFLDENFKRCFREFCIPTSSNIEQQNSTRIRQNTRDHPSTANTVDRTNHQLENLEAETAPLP

[2] = molecular target: T2, cloned human δ-opioid receptor (Homo sapiens, UniProt P41143); test: Inhibition of DPDPE-stimulated [35S]GTPγS binding; type: biochemical
T2 construct: expressed in transfected cells
T2 sequence (P41143 whole entry): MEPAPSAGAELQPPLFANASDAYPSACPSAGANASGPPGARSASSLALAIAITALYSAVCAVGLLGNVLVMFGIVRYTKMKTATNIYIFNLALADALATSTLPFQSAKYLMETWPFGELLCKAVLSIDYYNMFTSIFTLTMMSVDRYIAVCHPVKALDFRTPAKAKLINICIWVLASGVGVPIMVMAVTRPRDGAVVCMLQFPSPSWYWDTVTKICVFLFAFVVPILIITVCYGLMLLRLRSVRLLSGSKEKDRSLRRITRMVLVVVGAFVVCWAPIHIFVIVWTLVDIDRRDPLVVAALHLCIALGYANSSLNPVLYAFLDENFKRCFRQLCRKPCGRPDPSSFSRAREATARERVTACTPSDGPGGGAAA

[3] = molecular target: T3, cloned human κ-opioid receptor (Homo sapiens, UniProt P41145); test: Inhibition of U69,593-stimulated [35S]GTPγS binding; type: biochemical; conditions: for δ/κ / μ/κ: ratio of Ke values; for δ/κ: selectivity for κ relative to δ; for μ/κ: selectivity for κ relative to μ; for efficacy for the κ opioid receptor in words: [35S]GTPγS in vitro functional assay
T3 construct: expressed in transfected cells
T3 sequence (P41145 whole entry): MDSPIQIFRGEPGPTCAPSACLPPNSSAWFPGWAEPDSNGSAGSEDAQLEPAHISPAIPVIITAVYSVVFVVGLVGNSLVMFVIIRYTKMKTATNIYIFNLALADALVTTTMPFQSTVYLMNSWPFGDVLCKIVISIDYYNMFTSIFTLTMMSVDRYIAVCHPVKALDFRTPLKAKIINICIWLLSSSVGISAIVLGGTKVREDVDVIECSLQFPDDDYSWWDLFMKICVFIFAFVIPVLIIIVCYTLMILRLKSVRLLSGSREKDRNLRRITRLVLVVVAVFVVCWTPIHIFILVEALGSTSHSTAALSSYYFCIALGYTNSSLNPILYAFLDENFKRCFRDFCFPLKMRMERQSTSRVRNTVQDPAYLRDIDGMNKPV

[4] = antagonism of DAMGO-stimulated [35S]GTPγS binding, cloned human μ receptor
[5] = antagonism of DPDPE-stimulated [35S]GTPγS binding, cloned human δ receptor
[6] = antagonism of U69,593-stimulated [35S]GTPγS binding, cloned human κ receptor
[7] = antagonism of DAMGO-stimulated [35S]GTPγS binding, cloned human μ receptor, read-out: μ, DAMGO Ke
[8] = antagonism of DPDPE-stimulated [35S]GTPγS binding, cloned human δ receptor, read-out: δ, DPDPE Ke
[9] = antagonism of U69,593-stimulated [35S]GTPγS binding, cloned human κ receptor, read-out: κ, U69,593 Ke

| SMILES | μ, DAMGO Ke [1, 4] | δ, DPDPE Ke [2, 5] | κ, U69,593 Ke [3, 6] | δ/κ [3] | μ/κ [3] | efficacy for the κ opioid receptor in words [3] | Kb [1, 7] | Kb [2, 8] | Kb [3, 9] | melting point | Kb [1] | Kb [2] | Kb [3] |
| --- | --- | --- | --- | --- | --- | --- | --- | --- | --- | --- | --- | --- | --- |
| CC(C)[C@@H](CN1CCN(c2cccc(O)c2)[C@@H](C)C1)NC(=O)c1ccc(Oc2ccc(O)cc2)cc1.Cl.Cl [Compound 6g, N-(1S)-1-{[(3S)-4-(3-Hydroxyphenyl)-3-methylpiperazin-1-yl]methyl}-2-methylpropyl-4-(4-hydroxyphenoxy)benzamide Dihydrochloride] | 71 ± 19 nM | 1696 ± 377 nM | 8.6 ± 3.7 nM | 1.97 | 8 |  |  |  |  |  |  |  |  |
| COc1ccc(Oc2ccc(C(=O)N[C@H](CN3CCN(c4cccc(O)c4)[C@@H](C)C3)C(C)C)cc2)cc1.Cl.Cl [Compound 6j, N-(1S)-1-{[(3S)-4-(3-Hydroxyphenyl)-3-methylpiperazin-1-yl]methyl}-2-methylpropyl-4-(4-methoxyphenoxy)benzamide Dihydrochloride] | 17 ± 5 nM | 1383 ± 1049 nM | 0.60 ± 0.19 nM | 2305 | 28 | high efficacy (low Ke values) |  |  |  |  |  |  |  |
| CC(C)[C@@H](CN1CCN(c2cccc(O)c2)[C@@H](C)C1)NC(=O)c1ccc(Oc2cccc(Br)c2)cc1.Cl.Cl [Compound 19d, 4-(3-Bromophenoxy)-N-[(1S)-1-{[(3S)-4-(3-hydroxyphenyl)-3-methylpiperazin-1-yl]methyl}-2-methylpropyl]benzamide Dihydrochloride] |  |  |  | 88 | 35 |  | 17 ± 6.3 nM | 42 ± 19 nM | 0.48 ± 0.02 nM | 106 to 109 °C |  |  |  |
| CC(C)[C@@H](CN1CCN(c2cccc(O)c2)[C@@H](C)C1)NC(=O)c1ccc(Oc2ccccc2O)cc1.Cl.Cl [Compound 6h, N-(1S)-1-{[(3S)-4-(3-Hydroxyphenyl)-3-methylpiperazin-1-yl]methyl}-2-methylpropyl-4-(2-hydroxyphenoxy)benzamide Dihydrochloride] | 125 ± 10 nM | 960 ± 224 nM | 1.06 ± 0.26 nM |  |  |  |  |  |  |  |  |  |  |
| CC(C)[C@@H](CN1CCN(c2cccc(O)c2)[C@@H](C)C1)NC(=O)c1ccc(Oc2cccc(F)c2)cc1.Cl.Cl [Compound 6c, N-(1S)-1-{[(3S)-4-(3-Hydroxyphenyl)-3-methylpiperazin-1-yl]methyl}-2-methylpropyl-4-(3-fluorophenoxy)benzamide Dihydrochloride] | 30 ± 9.0 nM | 174 ± 4.5 nM | 1.48 ± 0.51 nM | 118 | 16 |  |  |  |  |  |  |  |  |
| CC(C)[C@@H](CN1CCN(c2cccc(O)c2)[C@@H](C)C1)NC(=O)c1ccc(Oc2ccccc2F)cc1.Cl.Cl [Compound 19a, 4-(2-Fluorophenoxy)-N-[(1S)-1-{[(3S)-4-(3-hydroxyphenyl)-3-methylpiperazin-1-yl]methyl}-2-methylpropyl]benzamide Dihydrochloride] |  |  |  | 126 | 28 | high efficacy (low Ke values) | 21.1 ± 4 nM | 96 ± 18 nM | 0.76 ± 0.21 nM | 156 to 159 °C |  |  |  |
| Cc1ccc(Oc2ccc(C(=O)N[C@H](CN3CCN(c4cccc(O)c4)[C@@H](C)C3)C(C)C)cc2)cc1.Cl.Cl [Compound 6b, N-(1S)-1-{[(3S)-4-(3-Hydroxyphenyl)-3-methylpiperazin-1-yl]methyl}-2-methylpropyl-4-(4-methylphenoxy)benzamide Dihydrochloride] | 20 ± 6 nM | 188 ± 33 nM | 0.69 ± 0.25 nM | 275 | 29 | high efficacy (low Ke values) |  |  |  |  |  |  |  |
| CC(C)[C@@H](CN1CCN(c2cccc(O)c2)[C@@H](C)C1)NC(=O)c1ccc(Oc2ccccc2)cc1.Cl.Cl [Compound 6a, N-(1S)-1-{[(3S)-4-(3-Hydroxyphenyl)-3-methylpiperazin-1-yl]methyl}-2-methylpropyl-4-phenoxybenzamide Dihydrochloride] | 51 ± 14.9 nM | 570 ± 79 nM | 0.85 ± 0.35 nM |  |  | high efficacy (low Ke values) |  |  |  |  |  |  |  |
| Cc1cccc(Oc2ccc(C(=O)N[C@H](CN3CCN(c4cccc(O)c4)[C@@H](C)C3)C(C)C)c(O)c2)c1.Cl.Cl [Compound 19l, 2-Hydroxy-N-[(1S)-1-{[(3S)-4-(3-hydroxyphenyl)-3-methylpiperazin-1-yl]methyl}-2-methylpropyl]-4-(3-methylphenoxy)benzamide Dihydrochloride] |  |  |  | 129 | 81 |  |  |  |  | 119 to 123 °C | 145 ± 48 nM | 233 ± 90 nM | 1.8 ± 0.3 nM |
| COc1cc(C(=O)N[C@H](CN2CCN(c3cccc(O)c3)[C@@H](C)C2)C(C)C)ccc1Oc1cc(C)ccc1O.Cl.Cl [Compound 19o, 4-(2-Hydroxy-5-methylphenoxy)-N-[(1S)-1-{[(3S)-4-(3-hydroxyphenyl)-3-methylpiperazin-1-yl]methyl}-2-methylpropyl]-3-methoxybenzamide Dihydrochloride] |  |  |  | 6 | 2 |  |  |  | 6.2 ± 2.2 nM | 100 to 103 °C | 10 ± 2.6 nM | 37 ± 13 nM |  |
| COc1cc(C(=O)N[C@H](CN2CCN(c3cccc(O)c3)[C@@H](C)C2)C(C)C)ccc1Oc1cccc(C)c1.Cl.Cl [Compound 19h, N-[(2S)-1-[(3S)-4-(3-Hydroxyphenyl)-3-methylpiperazin-1-yl]-3-methylbutan-2-yl]-3-methoxy-4-(3-methylphenoxy)benzamide Dihydrochloride] |  |  |  |  |  |  | 35.1 ± 15 nM | 93 ± 4 nM | 0.25 ± 0.07 nM | 128 to 131 °C |  |  |  |
| CC(C)[C@@H](CN1CCN(c2cccc(O)c2)[C@@H](C)C1)NC(=O)c1ccc(Oc2cccc(O)c2)cc1.Cl.Cl [Compound 6i, N-(1S)-1-{[(3S)-4-(3-Hydroxyphenyl)-3-methylpiperazin-1-yl]methyl}-2-methylpropyl-4-(3-hydroxyphenoxy)benzamide Dihydrochloride] | 69 ± 14 nM | 625 ± 121 nM | 1.85 ± 0.51 nM | 338 | 37 |  |  |  |  |  |  |  |  |
| CC(C)[C@@H](CN1CCN(c2cccc(O)c2)[C@@H](C)C1)NC(=O)c1ccc(Oc2ccccc2)cn1 [Compound 7a, N-(1S)-1-{[(3S)-4-(3-Hydroxyphenyl)-3-methylpiperazin-1-yl]methyl}-2-methylpropyl]-5-phenoxypyridine-2-carboxamide Trihydrochloride] |  |  |  | 723 | 36 |  | 101 ± 16 nM | 2020 ± 678 nM | 2.8 ± 1.2 nM |  |  |  |  |
| CC(C)[C@@H](CN1CCN(c2cccc(O)c2)[C@@H](C)C1)NC(=O)c1ccc(Oc2ccccc2O)c(Cl)c1.Cl.Cl [Compound 19n, 3-Chloro-4-(2-hydroxyphenoxy)-N-[(1)-1-{[(3S)-4-(3-hydroxyphenyl)-3-methylpiperazin-1-yl]methyl}-2-methylpropyl]benzamide Dihydrochloride] | 36 ± 9.2 nM | 210 ± 82 nM | 5.0 ± 0.82 nM | 42 | 7 |  |  |  |  |  |  |  |  |
| COc1cccc(Oc2ccc(C(=O)N[C@H](CN3CCN(c4cccc(O)c4)[C@@H](C)C3)C(C)C)cc2)c1.Cl.Cl [Compound 6f, N-(1S)-1-{[(3S)-4-(3-Hydroxyphenyl)-3-methylpiperazin-1-yl]methyl}-2-methylpropyl-4-(3-methoxyphenoxy)benzamide Dihydrochloride] | 33 ± 14 nM | 1502 ± 412 nM | 0.63 ± 0.13 nM | 2384 | 52 | high efficacy (low Ke values) |  |  |  |  |  |  |  |
| Cc1cccc(Oc2ccc(C(=O)N[C@H](CN3CCN(c4cccc(O)c4)[C@@H](C)C3)C(C)C)cc2)c1.Cl.Cl [Compound 6d, N-(1S)-1-{[(3S)-4-(3-Hydroxyphenyl)-3-methylpiperazin-1-yl]methyl}-2-methylpropyl-4-(3-methylphenoxy)benzamide Dihydrochloride] | 18 ± 6 nM | 62 ± 20 nM | 0.18 ± 0.06 nM |  |  | high efficacy (low Ke values) |  |  |  |  |  |  |  |
| Cc1cc(C(=O)N[C@H](CN2CCN(c3cccc(O)c3)[C@@H](C)C2)C(C)C)ccc1Oc1ccccc1.Cl.Cl [Compound 6k, N-(1S)-1-{[(3S)-4-(3-Hydroxyphenyl)-3-methylpiperazin-1-yl]methyl}-2-methylpropyl-3-methyl-4-phenoxybenzamide Dihydrochloride] | 15 ± 2 nM | 435 ± 143 nM | 0.63 ± 0.19 nM | 691 | 24 | high efficacy (low Ke values) |  |  |  |  |  |  |  |
| COc1ccccc1Oc1ccc(C(=O)N[C@H](CN2CCN(c3cccc(O)c3)[C@@H](C)C2)C(C)C)cc1.Cl.Cl [Compound 6e, N-(1S)-1-{[(3S)-4-(3-Hydroxyphenyl)-3-methylpiperazin-1-yl]methyl}-2-methylpropyl-4-(2-methoxyphenoxy)benzamide Dihydrochloride] | 127 ± 78 nM | 869 ± 205 nM | 5.60 ± 1.41 nM | 155 | 25 |  |  |  |  |  |  |  |  |
| Cc1ccc(O)c(Oc2ccc(C(=O)N[C@H](CN3CCN(c4cccc(O)c4)[C@@H](C)C3)C(C)C)cc2)c1.Cl.Cl [Compound 6m, 4-(2-Hydroxy-5-methylphenoxy)-N-[(2S)-1-[(3S)-4-(3-hydroxyphenyl)-3-methylpiperazin-1-yl]-3-methylbutan-2-yl]benzamide Dihydrochloride] |  |  |  |  |  |  |  |  |  | 179 to 183 °C |  |  |  |
